Reference: PubChem BioAssay AID1845204 (Molecular Pharmacology Branch, DTP, NCI, 2023)

Test system: HSSY-II tumor spheroid viability
Assay: Anticancer human tumor HSSY-II cell line growth inhibition;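 also: spheroids exposed to compounds for seven days before reading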;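 as to viability, T/C: percent of DMSO vehicle control viability so 100% = untreated level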
Conditions: spheroids with HUVEC and MSC; for IC50: curve of first compound; for viability, T/C: stronger effect = lower value
In short: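 Single agents and combinations were tested on spheroids built from tumor cells plus HUVEC and hMSC, at half-log dilutions starting at or near clinical Cmax, else 10 microM; final DMSO 0.25% (v/v).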

[1] = second compound 0.003 µM, first compound 0.0316 µM
[2] = second compound 0.003 µM, first compound 0.1 µM
[3] = second compound 0.003 µM, first compound 0.316 µM
[4] = second compound 0.003 µM, first compound 1 µM
[5] = second compound 0.003 µM, first compound 3.16 µM
[6] = second compound 0.003 µM, first compound 10 µM
[7] = second compound 0.00949 µM, first compound 0.0316 µM
[8] = second compound 0.00949 µM, first compound 0.1 µM
[9] = second compound 0.00949 µM, first compound 0.316 µM
[10] = second compound 0.00949 µM, first compound 1 µM
[11] = second compound 0.00949 µM, first compound 3.16 µM
[12] = second compound 0.00949 µM, first compound 10 µM
[13] = second compound 0.03 µM, first compound 0.0316 µM
[14] = second compound 0.03 µM, first compound 0.1 µM
[15] = second compound 0.03 µM, first compound 0.316 µM
[16] = second compound 0.03 µM, first compound 1 µM
[17] = second compound 0.03 µM, first compound 3.16 µM
[18] = second compound 0.03 µM, first compound 10 µM
[19] = second compound 0.0949 µM, first compound 0.0316 µM
[20] = second compound 0.0949 µM, first compound 0.1 µM
[21] = second compound 0.0949 µM, first compound 0.316 µM
[22] = second compound 0.0949 µM, first compound 1 µM
[23] = second compound 0.0949 µM, first compound 3.16 µM
[24] = second compound 0.0949 µM, first compound 10 µM
[25] = second compound 0.3 µM, first compound 0.0316 µM
[26] = second compound 0.3 µM, first compound 0.1 µM
[27] = second compound 0.3 µM, first compound 0.316 µM
[28] = second compound 0.3 µM, first compound 1 µM
[29] = second compound 0.3 µM, first compound 3.16 µM
[30] = second compound 0.3 µM, first compound 10 µM

CC(C)n1c(=O)n(C)c2cnc3cc(F)c(-c4ccc(OCCCN5CCCCC5)nc4)cc3c21 + CC[C@@]1(O)C(=O)OCc2c1cc1n(c2=O)Cc2cc3c(CN(C)C)c(O)ccc3nc2-1
IC50 (second compound 0.003 µM): < 31.6 nM | IC50 (second compound 0.00949 µM): < 31.6 nM | IC50 (second compound 0.03 µM): < 31.6 nM | IC50 (second compound 0.0949 µM): < 31.6 nM | IC50 (second compound 0.3 µM): < 31.6 nM | viability, T/C [1]: 48% | viability, T/C [2]: 45.2% | viability, T/C [3]: 51.9% | viability, T/C [4]: 40.6% | viability, T/C [5]: 14% | viability, T/C [6]: 10.2% | viability, T/C [7]: 15% | viability, T/C [8]: 14.7% | viability, T/C [9]: 14.3% | viability, T/C [10]: 13% | viability, T/C [11]: 9.79% | viability, T/C [12]: 7.58% | viability, T/C [13]: 10.1% | viability, T/C [14]: 9.85% | viability, T/C [15]: 9.61% | viability, T/C [16]: 7.8% | viability, T/C [17]: 4.59% | viability, T/C [18]: 2.72% | viability, T/C [19]: 9.24% | viability, T/C [20]: 8.61% | viability, T/C [21]: 8.35% | viability, T/C [22]: 6.09% | viability, T/C [23]: 4.16% | viability, T/C [24]: 2.59% | viability, T/C [25]: 6.62% | viability, T/C [26]: 6.23% | viability, T/C [27]: 5.88% | viability, T/C [28]: 5.84% | viability, T/C [29]: 4.56% | viability, T/C [30]: 3.48%

CC1COCCN1c1cc(-c2ccnn2C)c2ccnc(-c3ccn[nH]3)c2n1 (stereo not given) + CC[C@@]1(O)C(=O)OCc2c1cc1n(c2=O)Cc2cc3c(CN(C)C)c(O)ccc3nc2-1
IC50 (second compound 0.003 µM): < 31.6 nM | IC50 (second compound 0.00949 µM): < 31.6 nM | IC50 (second compound 0.03 µM): < 31.6 nM | IC50 (second compound 0.0949 µM): < 31.6 nM | IC50 (second compound 0.3 µM): < 31.6 nM | viability, T/C [1]: 6.17% | viability, T/C [2]: 4.36% | viability, T/C [3]: 2.62% | viability, T/C [4]: 1.92% | viability, T/C [5]: 1.88% | viability, T/C [6]: 2.35% | viability, T/C [7]: 4.45% | viability, T/C [8]: 3.49% | viability, T/C [9]: 2.45% | viability, T/C [10]: 1.99% | viability, T/C [11]: 1.87% | viability, T/C [12]: 2.14% | viability, T/C [13]: 3.87% | viability, T/C [14]: 3.3% | viability, T/C [15]: 2.51% | viability, T/C [16]: 1.83% | viability, T/C [17]: 1.68% | viability, T/C [18]: 2.01% | viability, T/C [19]: 3.97% | viability, T/C [20]: 3.08% | viability, T/C [21]: 2.54% | viability, T/C [22]: 1.86% | viability, T/C [23]: 1.59% | viability, T/C [24]: 1.83% | viability, T/C [25]: 3.93% | viability, T/C [26]: 3.43% | viability, T/C [27]: 2.61% | viability, T/C [28]: 1.6% | viability, T/C [29]: 1.43% | viability, T/C [30]: 1.82%

COc1cc(C)[nH]c(=O)c1CN1CCc2c(Cl)cc(C(OC)C3COC3)c(Cl)c2C1=O (stereo not given) + CC[C@@]1(O)C(=O)OCc2c1cc1n(c2=O)Cc2cc3c(CN(C)C)c(O)ccc3nc2-1
IC50 (second compound 0.003 µM): > 10000 nM | IC50 (second compound 0.00949 µM): 438 nM | IC50 (second compound 0.03 µM): < 31.6 nM | IC50 (second compound 0.0949 µM): < 31.6 nM | IC50 (second compound 0.3 µM): < 31.6 nM | viability, T/C [1]: 85.5% | viability, T/C [2]: 83.2% | viability, T/C [3]: 69.1% | viability, T/C [4]: 63% | viability, T/C [5]: 63.7% | viability, T/C [6]: 56.1% | viability, T/C [7]: 58.4% | viability, T/C [8]: 59.4% | viability, T/C [9]: 50.4% | viability, T/C [10]: 46% | viability, T/C [11]: 42.4% | viability, T/C [12]: 42.8% | viability, T/C [13]: 13.6% | viability, T/C [14]: 10.9% | viability, T/C [15]: 13.4% | viability, T/C [16]: 13.3% | viability, T/C [17]: 14.6% | viability, T/C [18]: 15.1% | viability, T/C [19]: 9.27% | viability, T/C [20]: 10.6% | viability, T/C [21]: 9.37% | viability, T/C [22]: 11% | viability, T/C [23]: 11.4% | viability, T/C [24]: 13.1% | viability, T/C [25]: 6.06% | viability, T/C [26]: 6.42% | viability, T/C [27]: 6.42% | viability, T/C [28]: 7.59% | viability, T/C [29]: 8.41% | viability, T/C [30]: 8.2%

COc1ccc([C@@H](O)c2cc(-c3ncnc4cc(N5CCOCC5)ccc34)c(F)cc2Cl)nn1 + CC[C@@]1(O)C(=O)OCc2c1cc1n(c2=O)Cc2cc3c(CN(C)C)c(O)ccc3nc2-1
IC50 (second compound 0.003 µM): 1380 nM | IC50 (second compound 0.00949 µM): 902 nM | IC50 (second compound 0.03 µM): < 31.6 nM | IC50 (second compound 0.0949 µM): < 31.6 nM | IC50 (second compound 0.3 µM): < 31.6 nM | viability, T/C [1]: 88.8% | viability, T/C [2]: 89.5% | viability, T/C [3]: 74.8% | viability, T/C [4]: 61.5% | viability, T/C [5]: 26.5% | viability, T/C [6]: 8.32% | viability, T/C [7]: 62.6% | viability, T/C [8]: 65.5% | viability, T/C [9]: 63.8% | viability, T/C [10]: 48.6% | viability, T/C [11]: 11.7% | viability, T/C [12]: 3.18% | viability, T/C [13]: 10.3% | viability, T/C [14]: 12.2% | viability, T/C [15]: 10.3% | viability, T/C [16]: 6.74% | viability, T/C [17]: 2.41% | viability, T/C [18]: 1.53% | viability, T/C [19]: 9.13% | viability, T/C [20]: 8.32% | viability, T/C [21]: 7.14% | viability, T/C [22]: 2.81% | viability, T/C [23]: 1.55% | viability, T/C [24]: 1.22% | viability, T/C [25]: 6.23% | viability, T/C [26]: 5.53% | viability, T/C [27]: 4.4% | viability, T/C [28]: 2.36% | viability, T/C [29]: 1.09% | viability, T/C [30]: 0.71%

[2H]c1nc(C)nc([2H])c1-c1cc(NC[C@@H](C)c2cccc3c(C(=O)NC)ccnc23)ncn1 + CC[C@@]1(O)C(=O)OCc2c1cc1n(c2=O)Cc2cc3c(CN(C)C)c(O)ccc3nc2-1
IC50 (second compound 0.003 µM): > 10000 nM | IC50 (second compound 0.00949 µM): > 10000 nM | IC50 (second compound 0.03 µM): < 31.6 nM | IC50 (second compound 0.0949 µM): < 31.6 nM | IC50 (second compound 0.3 µM): < 31.6 nM | viability, T/C [1]: 89.6% | viability, T/C [2]: 93.9% | viability, T/C [3]: 90.5% | viability, T/C [4]: 96.5% | viability, T/C [5]: 87.9% | viability, T/C [6]: 78.7% | viability, T/C [7]: 62% | viability, T/C [8]: 64.5% | viability, T/C [9]: 61.5% | viability, T/C [10]: 63.9% | viability, T/C [11]: 58% | viability, T/C [12]: 53.9% | viability, T/C [13]: 14.2% | viability, T/C [14]: 13.6% | viability, T/C [15]: 11.1% | viability, T/C [16]: 13.1% | viability, T/C [17]: 14% | viability, T/C [18]: 16.3% | viability, T/C [19]: 11% | viability, T/C [20]: 11.4% | viability, T/C [21]: 9.48% | viability, T/C [22]: 10.8% | viability, T/C [23]: 11.6% | viability, T/C [24]: 12% | viability, T/C [25]: 6.74% | viability, T/C [26]: 7.54% | viability, T/C [27]: 7.42% | viability, T/C [28]: 6.87% | viability, T/C [29]: 7.23% | viability, T/C [30]: 8.83%
